From ChEMBL document CHEMBL5528025, “Design, synthesis and biological evaluation of carbamate derivatives incorporating multifunctional carrier scaffolds as pseudo-irreversible cholinesterase inhibitors for the treatment of Alzheimer's disease” (Eur J Med Chem, 2024)
pIC50: −log10 of the molar value. Activity calls are given as the source filed them. The rule behind the calls is not given here.

Columns and labels:
Acetylcholinesterase [1] = molecular target: T1, Acetylcholinesterase (Homo sapiens, UniProt P22303)
T1 sequence (P22303 whole entry): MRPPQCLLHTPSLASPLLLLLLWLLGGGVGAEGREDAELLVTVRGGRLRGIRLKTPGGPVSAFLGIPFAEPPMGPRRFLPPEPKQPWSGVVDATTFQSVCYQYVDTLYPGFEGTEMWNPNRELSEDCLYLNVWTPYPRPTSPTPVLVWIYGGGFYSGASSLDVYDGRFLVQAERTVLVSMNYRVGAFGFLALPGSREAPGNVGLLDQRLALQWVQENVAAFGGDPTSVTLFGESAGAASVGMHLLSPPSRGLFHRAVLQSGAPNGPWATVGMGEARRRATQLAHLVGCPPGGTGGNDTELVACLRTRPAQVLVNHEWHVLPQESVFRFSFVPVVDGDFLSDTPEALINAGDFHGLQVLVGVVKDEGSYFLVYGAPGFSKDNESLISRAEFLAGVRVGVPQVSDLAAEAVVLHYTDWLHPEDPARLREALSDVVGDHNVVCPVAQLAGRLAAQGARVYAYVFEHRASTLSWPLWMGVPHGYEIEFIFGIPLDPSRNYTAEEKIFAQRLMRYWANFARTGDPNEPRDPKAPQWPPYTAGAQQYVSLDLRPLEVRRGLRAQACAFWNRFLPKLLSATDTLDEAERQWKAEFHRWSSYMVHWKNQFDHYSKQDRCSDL
Description: Inhibition of human erythrocyte AChE incubated for 10 mins

Cholinesterase [2] = molecular target: T2, Cholinesterase (Homo sapiens, UniProt P06276)
T2 sequence (P06276 whole entry): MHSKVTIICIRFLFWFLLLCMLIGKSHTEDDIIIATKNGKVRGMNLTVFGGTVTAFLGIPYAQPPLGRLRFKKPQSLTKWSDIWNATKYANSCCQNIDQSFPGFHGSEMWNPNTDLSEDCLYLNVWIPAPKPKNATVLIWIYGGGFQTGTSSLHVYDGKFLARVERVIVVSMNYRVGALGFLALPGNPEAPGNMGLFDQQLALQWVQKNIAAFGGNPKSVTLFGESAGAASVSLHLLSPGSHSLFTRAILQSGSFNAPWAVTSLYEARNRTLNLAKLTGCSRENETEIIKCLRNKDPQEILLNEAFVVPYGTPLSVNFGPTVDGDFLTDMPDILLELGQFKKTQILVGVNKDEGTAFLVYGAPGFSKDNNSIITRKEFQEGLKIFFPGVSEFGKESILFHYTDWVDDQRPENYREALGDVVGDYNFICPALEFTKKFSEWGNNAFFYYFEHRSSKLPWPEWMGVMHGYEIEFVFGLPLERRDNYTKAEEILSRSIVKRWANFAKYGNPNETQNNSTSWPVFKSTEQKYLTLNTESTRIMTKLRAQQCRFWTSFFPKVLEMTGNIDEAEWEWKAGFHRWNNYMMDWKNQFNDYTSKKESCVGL
Description: Inhibition of human serum BuChE using butyrylthiocholine iodide as substrate incubated for 10 mins followed by substrate addition and measured after 10 mins by DTNB reagent based Ellman's method

[3] = Cytotoxicity against rat PC-12 cells assessed as cell viability at 10 uM incubated for 24 hrs by CCK-8 assay relative to control; format: toxicity, cell-based; details: read-out: Activity
BV-2 [4] = test: Cytotoxicity against mouse BV-2 cells assessed as reduction in cell viability at 5 uM incubated for 24 hrs by CCK-8 assay; format: toxicity, cell-based; details: bv-2, 24 h
BV-2 [5] = test: Antineuroinflammatory activity in LPS-induced mouse BV-2 cells assessed as increase in IL-4 level at 1.25 to 5 uM incubated for 24 hrs by ELISA; format: functional, cell-based; details: dose 1.25-5 µM
PC-12 [6] = test: (§1) Neuroprotective activity against H2O2-induced rat PC-12 cells assessed as protection against H2O2-induced apoptosis by measuring live cells at 10 uM pretreated for 1 hr followed by H2O2 addition and measured after 24 hrs by Annexin V-FITC/PI staining based flow cytometry analysis (reference value: 63.2%); format: functional; details: time 25 hrs
PC-12 [7] = test: as §1, with “late apoptotic” for “live”, “7.97%)” for “63.2%)”; format: functional; details: time 25 hrs
PC-12 [8] = test: Inhibition of H2O2 induced ROS production in rat PC-12 cells assessed as reduction in intracellular ROS level at 10 uM pretreated for 1 hr followed by H2O2 stimulation and measured after 24 hrs by confocal microscopic analysis; format: functional, cell-based; details: time 25.0 hrs
Acetylcholinesterase [9] = molecular target: T1, Acetylcholinesterase; test: Pseudo-irreversible inhibition of human erythrocyte AChE at 4 times IC50 preincubated for 20 mins followed by dialysis and measured after 12 hrs; format: cell-based
Cholinesterase [10] = molecular target: T2, Cholinesterase; test: Pseudo-irreversible inhibition of human serum BuChE using butyrylthiocholine iodide as substrate at 4 times IC50 preincubated for 20 mins followed by dialysis and measured after 12 hrs by DTNB reagent based Ellman's method
[11] = Acute toxicity in ICR mouse assessed as aberrant behavior at 100 to 500 mg/kg, ip measured after 14 days; format: organism-based; details: in vivo, 336 h, dose 100-500 mg/kg, time 14 day
[12] = Acute toxicity in ICR mouse assessed as abnormal dietary patterns at 100 to 500 mg/kg, ip measured after 14 days; format: organism-based; details: in vivo, 336 h, dose 100-500 mg/kg, time 14 day
[13] = Acute toxicity in ICR mouse assessed as reduction in body weight at 100 to 500 mg/kg, ip measured after 2 days; format: organism-based; details: in vivo, 48 h, dose 100-500 mg/kg, time 2 day
[14] = Acute toxicity in ICR mouse assessed as histopathological change in heart at 100 to 500 mg/kg, ip measured after 14 days by H and E staining based analysis; format: organism-based; details: in vivo, 336 h, dose 100-500 mg/kg, time 14 day
[15] = Acute toxicity in ICR mouse assessed as histopathological change in liver at 100 to 500 mg/kg, ip measured after 14 days by H and E staining based analysis; format: organism-based; details: in vivo, 336 h, dose 100-500 mg/kg, time 14 day
[16] = Acute toxicity in ICR mouse assessed as histopathological change in spleen at 100 to 500 mg/kg, ip measured after 14 days by H and E staining based analysis; format: organism-based; details: in vivo, 336 h, dose 100-500 mg/kg, time 14 day
[17] = Acute toxicity in ICR mouse assessed as histopathological change in brain at 100 to 500 mg/kg, ip measured after 14 days by H and E staining based analysis; format: organism-based; details: in vivo, 336 h, dose 100-500 mg/kg, time 14 day
[18] = Hepatotoxicity in IG dosed ICR mouse measured after 48 hrs; format: toxicity, organism-based; details: in vivo, po
Mus musculus [19] = test: In vivo inhibition of AChE in scopolamine treated ICR mouse assessed as reduction in AChE level in brain at 5 to 20 mg/kg, ip preadministered with scopolamine for 7 days followed by compound administration and measured after 7 days; format: functional, organism-based; details: dose 5-20 mg/kg, time 7.0 day
Mus musculus [20] = test: In vivo inhibition of BuChE in scopolamine treated ICR mouse assessed as reduction in BuChE level in brain at 20 mg/kg, ip preadministered with scopolamine for 7 days followed by compound administration and measured after 7 days; format: functional, organism-based; details: time 7.0 day
Mus musculus [21] = test: Antialzheimer activity in ip dosed amyloid beta (1 to 42 residues) induced ICR mouse model assessed as reduction in learning deficits by measuring increase in alternation performance administered daily and measured on day 12 by Y-maze test; format: functional, organism-based; details: dose 5-20 mg/kg, time 12.0 day
Mus musculus [22] = test: Antialzheimer activity in amyloid beta (1 to 42 residues) induced ICR mouse model assessed as increase in step through latency at 5 to 20 mg/kg, ip administered daily and measured on day 18 and 19 by passive avoidance test; format: functional, organism-based; details: dose 5-20 mg/kg, time 18-19 day
Mus musculus [23] = test: Antialzheimer activity in amyloid beta (1 to 42 residues) induced ICR mouse model assessed as reduction in learning deficits by measuring reduction in latency at 5 to 20 mg/kg, ip administered daily and measured for 3 days by morris water maze test; format: functional, organism-based; details: dose 5-20 mg/kg, time 3.0 day
Mus musculus [24] = test: Antialzheimer activity in amyloid beta (1 to 42 residues) induced ICR mouse model assessed as reduction in learning deficits by measuring reduction in path search distance at 5 to 20 mg/kg, ip administered daily and measured on day 4 by morris water maze test; format: functional, organism-based; details: dose 5-20 mg/kg, time 4.0 day
Mus musculus [25] = test: Antialzheimer activity in amyloid beta (1 to 42 residues) induced ICR mouse model assessed as reduction in learning deficits by measuring increase in trajectory within target quadrant at 5 to 20 mg/kg, ip administered daily and measured after 13 to 17 days by morris water maze test; format: functional, organism-based; details: dose 5-20 mg/kg, time 13-17 day
Mus musculus [26] = test: Antialzheimer activity in amyloid beta (1 to 42 residues) induced ICR mouse model assessed as reduction in learning deficits by measuring increase in duration of time spent within target quadrant at 5 to 20 mg/kg, ip administered daily and measured after 13 to 17 days by morris water maze test; format: functional, organism-based; details: dose 5-20 mg/kg, time 13-17 day
Mus musculus [27] = test: Antialzheimer activity in amyloid beta (1 to 42 residues) induced ICR mouse model assessed as reduction in learning deficits by measuring increase in distance traveled within target quadrant at 5 to 20 mg/kg, ip administered daily and measured after 13 to 17 days by morris water maze test; format: functional, organism-based; details: dose 5-20 mg/kg, time 13-17 day
Mus musculus [28] = test: Antialzheimer activity in amyloid beta (1 to 42 residues) induced ICR mouse model assessed as reduction in nerve damage by measuring increase in live neurons in hippocampal CA1 region at 5 to 20 mg/kg, ip administered daily by nissl staining based fluorescence microscopy; format: functional, organism-based; details: dose 5-20 mg/kg
Mus musculus [29] = test: Antialzheimer activity in amyloid beta (1 to 42 residues) induced ICR mouse model assessed as reduction in nerve damage by measuring increase in live neurons in hippocampal CA3 region at 20 mg/kg, ip administered daily by nissl staining based fluorescence microscopy; format: functional, organism-based

`C[C@@H](c1cccc(OC(=O)NCCCCCCNc2c3c(nc4cc(Cl)ccc24)CCCC3)c1)N(C)C` gave a pIC50 (Acetylcholinesterase [1]) of 7.59 and a pIC50 (Cholinesterase [2]) of 7.03.
In the case of `C[C@@H](c1cccc(OC(=O)NCCCCCNc2c3c(nc4cc(Br)ccc24)CCCC3)c1)N(C)C`, the pIC50 (Acetylcholinesterase [1]) was 7.32 and the pIC50 (Cholinesterase [2]) was 7.66.
With `C[C@@H](c1cccc(OC(=O)NCCCCCCNc2c3c(nc4cc(F)ccc24)CCCC3)c1)N(C)C` the pIC50 (Acetylcholinesterase [1]) was 7.38 and the pIC50 (Cholinesterase [2]) was 7.96.
`C[C@@H](c1cccc(OC(=O)NCCNc2c3c(nc4ccccc24)CCCC3)c1)N(C)C` showed a pIC50 (Acetylcholinesterase [1]) of 6.60 and a pIC50 (Cholinesterase [2]) of less than 5.00.
With `O=C(NCCCCCCNc1c2c(nc3cc(F)ccc13)CCCC2)Oc1ccc(-c2cc3cccnc3[nH]2)cc1` the viability at 24 h, 10 µM [3] was greater than 90%, the Activity (BV-2 [4]) was “Non-Toxic” and the Activity (BV-2 [5]) was “Active”. The Activity (PC-12 [6]) was 81.3%, the Activity (PC-12 [7]) was 5.8% and the inhibition (PC-12 [8]) was “Active”. For the same compound, the inhibition (Acetylcholinesterase [9]) was “Active”, the inhibition (Cholinesterase [10]) was “Active” and the Activity [11] was “Non-Toxic”. For the same compound, the Activity [12] was “Non-Toxic”, the Activity [13] was “Toxic” and the Activity [14] was “Non-Toxic”. For the same compound, the Activity [15] was “Non-Toxic”, the Activity [16] was “Non-Toxic” and the Activity [17] was “Non-Toxic”. For the same compound, the LD50 at 48 h [18] was greater than 500 mg/kg, the inhibition (Mus musculus [19]) was “Active” and the inhibition (Mus musculus [20]) was “Active”. The Activity (Mus musculus [21]) was “Dose-Dependent Effect”, the Activity (Mus musculus [22]) was “Active” and the Activity (Mus musculus [23]) was “Active”. The Activity (Mus musculus [24]) was “Active”, the Activity (Mus musculus [25]) was “Active” and the Activity (Mus musculus [26]) was “Active”. The Activity (Mus musculus [27]) was “Active”, the Activity (Mus musculus [28]) was “Active” and the Activity (Mus musculus [29]) was “Active”. It also gave a pIC50 (Acetylcholinesterase [1]) of 7.52 and a pIC50 (Cholinesterase [2]) of 7.32.
In the case of `O=C(NCCCCCCNc1c2c(nc3ccccc13)CCCC2)Oc1ccc(-c2cc3cccnc3[nH]2)cc1`, the pIC50 (Acetylcholinesterase [1]) was 7.67 and the pIC50 (Cholinesterase [2]) was 7.74.
`O=C(NCCCCCCNc1c2c(nc3cc(Cl)ccc13)CCCC2)Oc1ccc2cc[nH]c2c1` showed a pIC50 (Acetylcholinesterase [1]) of 6.82 and a pIC50 (Cholinesterase [2]) of 7.19.
For `O=C(NCCCCNc1c2c(nc3ccccc13)CCCC2)Oc1ccc(-c2cc3cccnc3[nH]2)cc1`, the viability at 24 h, 10 µM [3] was greater than 90%, the Activity (BV-2 [4]) was “Non-Toxic” and the Activity (BV-2 [5]) was “Active”. For the same compound, the Activity (PC-12 [6]) was 77.2%, the Activity (PC-12 [7]) was 2.92% and the inhibition (PC-12 [8]) was “Active”. For the same compound, the pIC50 (Acetylcholinesterase [1]) was 6.69 and the pIC50 (Cholinesterase [2]) was 7.69.
`O=C(NCCCCCNc1c2c(nc3cc(F)ccc13)CCCC2)Oc1ccc(-c2cc3cccnc3[nH]2)cc1` showed a pIC50 (Acetylcholinesterase [1]) of 6.82 and a pIC50 (Cholinesterase [2]) of 6.48.
Compound `C[C@@H](c1cccc(OC(=O)NCCCNc2c3c(nc4ccccc24)CCCC3)c1)N(C)C` has a pIC50 (Acetylcholinesterase [1]) of 6.41 and a pIC50 (Cholinesterase [2]) of 7.63.
`O=C(NCCCCCNc1c2c(nc3ccccc13)CCCC2)Oc1ccc(-c2cc3cccnc3[nH]2)cc1` showed a pIC50 (Acetylcholinesterase [1]) of 6.82 and a pIC50 (Cholinesterase [2]) of 7.67.
Work on `O=C(NCCCNc1c2c(nc3ccccc13)CCCC2)Oc1ccc2cc[nH]c2c1` yielded a pIC50 (Acetylcholinesterase [1]) of 6.26 and a pIC50 (Cholinesterase [2]) of 8.14.
Work on `O=C(NCCCCCCNc1c2c(nc3ccccc13)CCCC2)Oc1ccc2cc[nH]c2c1` yielded a pIC50 (Acetylcholinesterase [1]) of 6.42 and a pIC50 (Cholinesterase [2]) of 7.12.
For `O=C(NCCNc1c2c(nc3ccccc13)CCCC2)Oc1ccc2cc[nH]c2c1`, the pIC50 (Acetylcholinesterase [1]) was 5.90 and the pIC50 (Cholinesterase [2]) was 9.43.
Work on `O=C(NCCCCCNc1c2c(nc3cc(F)ccc13)CCCC2)Oc1ccc2cc[nH]c2c1` yielded a pIC50 (Acetylcholinesterase [1]) of 6.56 and a pIC50 (Cholinesterase [2]) of 7.40.
Work on `O=C(NCCCCCNc1c2c(nc3cc(Br)ccc13)CCCC2)Oc1ccc(-c2cc3cccnc3[nH]2)cc1` yielded a pIC50 (Acetylcholinesterase [1]) of 7.23 and a pIC50 (Cholinesterase [2]) of 6.10.
`O=C(NCCCCCCNc1c2c(nc3cc(Br)ccc13)CCCC2)Oc1ccc2cc[nH]c2c1` gave a pIC50 (Acetylcholinesterase [1]) of 6.95 and a pIC50 (Cholinesterase [2]) of 7.24.
